Test results reported in BindingDB's records for doi:10.1038/nchembio.2087 (University of Oxford, 2016).

What was measured:
Assay in all cases: Demethylase AlphaScreen Assay
Settings in all cases: pH 7.5
[1] = target: T1, Lysine-specific demethylase 4C (Homo sapiens, UniProt Q9H3R0)
T1 sequence (Q9H3R0 whole entry): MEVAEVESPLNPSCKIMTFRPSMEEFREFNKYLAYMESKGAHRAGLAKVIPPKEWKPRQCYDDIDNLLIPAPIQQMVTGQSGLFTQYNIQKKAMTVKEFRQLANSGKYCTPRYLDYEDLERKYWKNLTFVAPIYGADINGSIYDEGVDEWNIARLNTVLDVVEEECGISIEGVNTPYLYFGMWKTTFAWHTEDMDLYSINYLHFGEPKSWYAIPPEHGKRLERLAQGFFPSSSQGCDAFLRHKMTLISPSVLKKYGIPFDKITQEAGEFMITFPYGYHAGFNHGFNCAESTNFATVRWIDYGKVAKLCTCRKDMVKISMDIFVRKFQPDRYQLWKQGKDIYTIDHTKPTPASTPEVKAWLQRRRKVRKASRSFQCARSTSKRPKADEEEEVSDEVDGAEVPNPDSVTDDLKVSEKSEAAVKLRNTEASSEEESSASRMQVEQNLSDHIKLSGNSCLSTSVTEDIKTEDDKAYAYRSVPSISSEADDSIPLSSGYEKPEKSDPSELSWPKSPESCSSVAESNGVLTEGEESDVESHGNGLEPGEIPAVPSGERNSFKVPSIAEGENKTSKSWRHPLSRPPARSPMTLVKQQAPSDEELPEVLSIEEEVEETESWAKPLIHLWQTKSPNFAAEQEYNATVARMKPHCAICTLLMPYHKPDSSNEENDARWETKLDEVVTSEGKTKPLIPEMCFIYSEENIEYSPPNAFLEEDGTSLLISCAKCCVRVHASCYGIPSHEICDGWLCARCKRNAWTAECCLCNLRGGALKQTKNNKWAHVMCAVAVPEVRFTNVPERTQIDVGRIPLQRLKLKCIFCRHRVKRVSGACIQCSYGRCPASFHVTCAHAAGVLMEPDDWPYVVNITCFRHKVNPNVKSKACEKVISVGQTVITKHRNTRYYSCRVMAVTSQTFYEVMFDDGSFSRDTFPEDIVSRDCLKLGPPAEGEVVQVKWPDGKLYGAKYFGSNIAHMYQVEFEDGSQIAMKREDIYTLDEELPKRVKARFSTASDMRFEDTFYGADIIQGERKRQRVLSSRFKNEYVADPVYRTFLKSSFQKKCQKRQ
Description: (§1) The demethylase AlphaScreen assay was performed in 384-well plate format using white proxiplates (PerkinElmer), and transfer of compound (100 nl) was performed using an ECHO 550 acoustic dispenser (Labcyte). […] All subsequent steps were carried out in assay buffer (50 mM HEPES, pH 7.5, 0.1% (wt/vol) BSA and 0.01% (vol/vol) Tween-20). In brief, 5 μl of assay buffer containing demethylase enzyme at 2× final assay concentration (see Supplementary Table 3c for assay specifics) was preincubated for 15 min with dilutions of compound.

[2] = target: T2, Lysine-specific demethylase 5A [1-801] (Homo sapiens, UniProt P29375)
T2 construct: 1-801
T2 sequence (P29375 whole entry): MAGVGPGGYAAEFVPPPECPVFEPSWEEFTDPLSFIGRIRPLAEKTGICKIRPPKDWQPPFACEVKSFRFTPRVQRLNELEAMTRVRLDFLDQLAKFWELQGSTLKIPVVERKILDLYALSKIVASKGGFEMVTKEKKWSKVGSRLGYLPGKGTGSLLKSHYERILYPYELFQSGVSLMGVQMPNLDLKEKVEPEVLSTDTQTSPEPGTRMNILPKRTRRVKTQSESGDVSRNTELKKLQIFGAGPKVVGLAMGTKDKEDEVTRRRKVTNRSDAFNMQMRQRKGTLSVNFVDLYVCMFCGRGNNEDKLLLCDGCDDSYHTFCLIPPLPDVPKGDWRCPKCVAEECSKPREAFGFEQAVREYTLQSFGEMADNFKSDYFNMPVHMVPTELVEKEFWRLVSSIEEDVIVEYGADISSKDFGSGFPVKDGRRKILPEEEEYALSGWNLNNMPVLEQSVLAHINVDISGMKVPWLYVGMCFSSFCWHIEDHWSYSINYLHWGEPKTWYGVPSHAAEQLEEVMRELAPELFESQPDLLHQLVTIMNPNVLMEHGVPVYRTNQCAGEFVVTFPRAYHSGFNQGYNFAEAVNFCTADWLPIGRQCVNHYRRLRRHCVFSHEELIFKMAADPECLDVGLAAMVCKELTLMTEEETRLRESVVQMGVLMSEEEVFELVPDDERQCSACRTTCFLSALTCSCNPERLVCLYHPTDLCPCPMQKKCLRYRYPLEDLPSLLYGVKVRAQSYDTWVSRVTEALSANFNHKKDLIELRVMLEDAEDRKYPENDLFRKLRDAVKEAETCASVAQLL
Description: as §1

[3] = target: Lysine-specific demethylase 5B (Homo sapiens, UniProt Q9UGL1)
Description: as §1

[4] = target: T3, Lysine-specific demethylase 5D [1-775] (Homo sapiens, UniProt Q9BY66)
T3 construct: 1-775
Description: as §1

[5] = target: T4, Lysine-specific demethylase 3A (Homo sapiens, UniProt Q9Y4C1)
T4 sequence (Q9Y4C1 whole entry): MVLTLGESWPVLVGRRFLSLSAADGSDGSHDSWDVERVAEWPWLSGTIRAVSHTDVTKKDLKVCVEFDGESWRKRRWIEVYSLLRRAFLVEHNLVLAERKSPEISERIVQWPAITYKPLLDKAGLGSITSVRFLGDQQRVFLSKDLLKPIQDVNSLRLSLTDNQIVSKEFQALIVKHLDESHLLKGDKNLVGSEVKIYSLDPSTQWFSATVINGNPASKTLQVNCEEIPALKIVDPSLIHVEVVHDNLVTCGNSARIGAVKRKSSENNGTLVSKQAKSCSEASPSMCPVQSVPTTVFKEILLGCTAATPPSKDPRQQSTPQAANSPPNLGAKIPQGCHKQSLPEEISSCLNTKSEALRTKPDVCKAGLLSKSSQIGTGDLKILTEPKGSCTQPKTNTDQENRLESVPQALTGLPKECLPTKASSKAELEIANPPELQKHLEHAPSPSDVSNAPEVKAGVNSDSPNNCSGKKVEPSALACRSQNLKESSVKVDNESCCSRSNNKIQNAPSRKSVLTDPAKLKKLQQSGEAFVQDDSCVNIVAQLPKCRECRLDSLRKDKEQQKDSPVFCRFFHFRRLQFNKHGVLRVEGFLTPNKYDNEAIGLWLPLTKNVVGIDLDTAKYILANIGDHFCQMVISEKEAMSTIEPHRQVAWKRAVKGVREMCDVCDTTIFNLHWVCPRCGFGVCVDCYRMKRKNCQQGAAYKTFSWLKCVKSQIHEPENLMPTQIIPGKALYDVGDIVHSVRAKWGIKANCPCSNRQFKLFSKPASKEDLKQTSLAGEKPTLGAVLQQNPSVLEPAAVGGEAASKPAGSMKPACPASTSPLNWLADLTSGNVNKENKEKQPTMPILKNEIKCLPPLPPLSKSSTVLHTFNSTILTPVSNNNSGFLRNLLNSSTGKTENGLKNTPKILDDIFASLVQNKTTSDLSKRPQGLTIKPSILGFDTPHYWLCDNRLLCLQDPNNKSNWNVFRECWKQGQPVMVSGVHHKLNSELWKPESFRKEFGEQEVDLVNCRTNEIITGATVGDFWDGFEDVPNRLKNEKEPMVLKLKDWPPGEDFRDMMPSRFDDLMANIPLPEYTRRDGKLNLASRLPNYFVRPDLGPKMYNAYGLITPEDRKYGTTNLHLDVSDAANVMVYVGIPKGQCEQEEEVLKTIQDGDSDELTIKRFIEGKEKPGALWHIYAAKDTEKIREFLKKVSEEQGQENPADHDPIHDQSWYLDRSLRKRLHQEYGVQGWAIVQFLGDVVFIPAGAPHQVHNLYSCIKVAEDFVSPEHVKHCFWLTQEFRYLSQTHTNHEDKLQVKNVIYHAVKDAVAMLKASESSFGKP
Description: as §1

[6] = target: T5, Lysine-specific demethylase 5C [1-765] (Homo sapiens, UniProt P41229)
T5 construct: 1-765
T5 sequence (P41229 whole entry): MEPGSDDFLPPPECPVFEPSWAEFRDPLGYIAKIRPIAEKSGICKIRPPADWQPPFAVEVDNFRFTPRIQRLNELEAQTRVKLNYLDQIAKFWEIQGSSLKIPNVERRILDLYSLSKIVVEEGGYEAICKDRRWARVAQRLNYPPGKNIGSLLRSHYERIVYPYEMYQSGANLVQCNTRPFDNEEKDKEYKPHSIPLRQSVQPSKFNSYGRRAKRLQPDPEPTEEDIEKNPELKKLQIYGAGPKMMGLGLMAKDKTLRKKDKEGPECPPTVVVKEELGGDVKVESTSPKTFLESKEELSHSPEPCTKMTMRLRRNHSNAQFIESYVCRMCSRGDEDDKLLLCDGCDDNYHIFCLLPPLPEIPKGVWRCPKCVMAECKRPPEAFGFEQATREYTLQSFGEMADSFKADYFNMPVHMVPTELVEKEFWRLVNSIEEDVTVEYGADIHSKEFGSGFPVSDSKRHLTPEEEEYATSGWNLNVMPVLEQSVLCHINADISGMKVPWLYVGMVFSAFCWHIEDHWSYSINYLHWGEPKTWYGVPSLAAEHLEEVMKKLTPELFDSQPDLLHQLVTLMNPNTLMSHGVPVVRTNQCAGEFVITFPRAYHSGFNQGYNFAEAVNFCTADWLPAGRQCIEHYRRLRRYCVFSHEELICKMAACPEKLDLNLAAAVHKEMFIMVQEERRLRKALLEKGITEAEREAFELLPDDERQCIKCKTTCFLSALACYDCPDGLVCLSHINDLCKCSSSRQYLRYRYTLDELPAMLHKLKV
Description: as §1

[7] = target: T6, Lysine-specific demethylase 2A (Homo sapiens, UniProt Q9Y2K7)
T6 sequence (Q9Y2K7 whole entry): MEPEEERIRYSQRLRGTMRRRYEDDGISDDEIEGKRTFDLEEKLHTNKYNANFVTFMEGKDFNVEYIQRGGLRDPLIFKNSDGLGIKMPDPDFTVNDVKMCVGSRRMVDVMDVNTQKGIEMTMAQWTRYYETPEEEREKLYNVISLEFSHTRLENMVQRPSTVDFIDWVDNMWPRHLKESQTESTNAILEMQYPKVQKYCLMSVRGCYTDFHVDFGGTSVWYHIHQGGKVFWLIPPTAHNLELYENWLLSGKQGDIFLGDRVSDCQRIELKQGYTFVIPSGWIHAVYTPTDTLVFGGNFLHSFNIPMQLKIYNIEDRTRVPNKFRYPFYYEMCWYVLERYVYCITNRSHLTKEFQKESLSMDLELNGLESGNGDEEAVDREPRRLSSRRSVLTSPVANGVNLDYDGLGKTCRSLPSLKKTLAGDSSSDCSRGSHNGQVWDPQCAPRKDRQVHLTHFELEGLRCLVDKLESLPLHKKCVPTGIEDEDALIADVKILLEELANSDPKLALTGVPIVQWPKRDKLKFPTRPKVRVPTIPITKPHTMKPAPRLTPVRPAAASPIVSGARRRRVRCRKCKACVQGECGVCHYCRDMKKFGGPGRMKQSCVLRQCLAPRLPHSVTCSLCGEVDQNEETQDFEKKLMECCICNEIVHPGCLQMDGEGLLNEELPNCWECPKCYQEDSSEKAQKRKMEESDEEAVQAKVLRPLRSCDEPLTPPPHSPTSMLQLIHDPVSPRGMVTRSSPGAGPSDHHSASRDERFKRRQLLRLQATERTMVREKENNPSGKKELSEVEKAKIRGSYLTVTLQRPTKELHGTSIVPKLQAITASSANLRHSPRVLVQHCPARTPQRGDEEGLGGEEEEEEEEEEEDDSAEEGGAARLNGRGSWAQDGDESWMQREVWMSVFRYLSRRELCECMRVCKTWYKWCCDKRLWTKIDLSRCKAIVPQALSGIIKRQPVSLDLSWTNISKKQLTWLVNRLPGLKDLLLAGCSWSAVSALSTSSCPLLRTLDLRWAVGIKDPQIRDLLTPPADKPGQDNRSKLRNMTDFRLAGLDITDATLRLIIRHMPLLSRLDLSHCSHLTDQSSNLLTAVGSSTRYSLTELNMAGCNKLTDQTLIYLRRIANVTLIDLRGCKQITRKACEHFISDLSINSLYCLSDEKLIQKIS
Description: as §1

[8] = target: Lysine-specific demethylase 6B (Homo sapiens, UniProt O15054)
Description: as §1

Lysine-specific demethylase 5B, sequence (Q9UGL1 whole entry): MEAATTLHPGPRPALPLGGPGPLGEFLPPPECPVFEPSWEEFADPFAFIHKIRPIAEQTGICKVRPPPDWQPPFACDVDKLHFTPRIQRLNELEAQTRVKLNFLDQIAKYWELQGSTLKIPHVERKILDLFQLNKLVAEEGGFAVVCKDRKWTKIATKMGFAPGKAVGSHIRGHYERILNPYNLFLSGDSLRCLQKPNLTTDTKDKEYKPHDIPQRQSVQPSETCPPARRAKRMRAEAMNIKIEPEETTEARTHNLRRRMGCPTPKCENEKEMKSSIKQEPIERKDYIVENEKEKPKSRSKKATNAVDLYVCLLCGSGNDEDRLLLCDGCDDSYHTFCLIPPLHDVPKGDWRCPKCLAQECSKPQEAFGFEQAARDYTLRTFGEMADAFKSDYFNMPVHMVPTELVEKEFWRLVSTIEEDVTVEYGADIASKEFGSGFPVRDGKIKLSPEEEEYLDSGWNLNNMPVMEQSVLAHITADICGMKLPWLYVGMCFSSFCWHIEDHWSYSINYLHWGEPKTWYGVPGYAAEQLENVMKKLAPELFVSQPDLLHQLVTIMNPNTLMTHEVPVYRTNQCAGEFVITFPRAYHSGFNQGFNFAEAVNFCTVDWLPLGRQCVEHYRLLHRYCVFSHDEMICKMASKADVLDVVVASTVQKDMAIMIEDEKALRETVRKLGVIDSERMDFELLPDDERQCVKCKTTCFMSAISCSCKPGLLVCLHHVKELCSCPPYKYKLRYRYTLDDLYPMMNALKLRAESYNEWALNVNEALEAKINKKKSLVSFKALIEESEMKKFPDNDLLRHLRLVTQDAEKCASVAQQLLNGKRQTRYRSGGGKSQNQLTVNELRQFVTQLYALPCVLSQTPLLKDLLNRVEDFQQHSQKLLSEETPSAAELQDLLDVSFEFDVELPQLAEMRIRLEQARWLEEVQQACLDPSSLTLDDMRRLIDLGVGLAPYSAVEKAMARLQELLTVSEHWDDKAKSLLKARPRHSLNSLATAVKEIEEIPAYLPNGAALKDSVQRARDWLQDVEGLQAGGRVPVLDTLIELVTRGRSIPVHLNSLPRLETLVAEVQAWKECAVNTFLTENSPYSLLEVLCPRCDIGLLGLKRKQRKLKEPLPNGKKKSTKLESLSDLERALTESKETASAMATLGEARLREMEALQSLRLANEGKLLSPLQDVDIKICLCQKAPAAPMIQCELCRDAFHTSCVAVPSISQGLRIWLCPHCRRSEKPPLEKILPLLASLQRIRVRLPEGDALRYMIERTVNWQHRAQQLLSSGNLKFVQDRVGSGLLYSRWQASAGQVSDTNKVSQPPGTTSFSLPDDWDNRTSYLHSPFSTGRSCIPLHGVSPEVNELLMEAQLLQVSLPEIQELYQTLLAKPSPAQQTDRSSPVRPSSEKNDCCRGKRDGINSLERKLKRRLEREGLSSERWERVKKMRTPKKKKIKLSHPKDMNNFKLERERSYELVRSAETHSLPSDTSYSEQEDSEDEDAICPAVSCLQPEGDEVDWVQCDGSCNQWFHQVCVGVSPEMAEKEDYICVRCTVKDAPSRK
T3 sequence (Q9BY66 1-775): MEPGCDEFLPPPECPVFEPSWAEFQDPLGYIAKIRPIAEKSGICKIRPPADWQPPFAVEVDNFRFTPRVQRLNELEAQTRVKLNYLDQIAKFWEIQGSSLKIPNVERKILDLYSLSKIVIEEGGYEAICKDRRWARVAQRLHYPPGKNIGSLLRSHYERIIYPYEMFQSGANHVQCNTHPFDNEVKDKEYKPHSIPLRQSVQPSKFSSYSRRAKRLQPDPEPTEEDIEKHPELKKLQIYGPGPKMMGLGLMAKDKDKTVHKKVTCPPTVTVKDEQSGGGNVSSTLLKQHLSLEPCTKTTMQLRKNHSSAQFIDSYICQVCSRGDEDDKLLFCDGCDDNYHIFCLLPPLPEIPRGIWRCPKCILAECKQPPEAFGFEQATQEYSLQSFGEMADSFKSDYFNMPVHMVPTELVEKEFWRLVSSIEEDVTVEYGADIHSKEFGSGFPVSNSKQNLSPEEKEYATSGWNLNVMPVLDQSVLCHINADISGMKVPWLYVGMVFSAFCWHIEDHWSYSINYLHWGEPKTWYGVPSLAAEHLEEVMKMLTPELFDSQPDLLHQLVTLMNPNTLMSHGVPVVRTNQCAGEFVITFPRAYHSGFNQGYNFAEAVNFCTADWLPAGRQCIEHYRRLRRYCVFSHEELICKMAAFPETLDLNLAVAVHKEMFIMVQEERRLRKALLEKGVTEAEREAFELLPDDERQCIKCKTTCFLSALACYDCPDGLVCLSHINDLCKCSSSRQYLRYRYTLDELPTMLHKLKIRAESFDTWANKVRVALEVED
Lysine-specific demethylase 6B, sequence (O15054 whole entry): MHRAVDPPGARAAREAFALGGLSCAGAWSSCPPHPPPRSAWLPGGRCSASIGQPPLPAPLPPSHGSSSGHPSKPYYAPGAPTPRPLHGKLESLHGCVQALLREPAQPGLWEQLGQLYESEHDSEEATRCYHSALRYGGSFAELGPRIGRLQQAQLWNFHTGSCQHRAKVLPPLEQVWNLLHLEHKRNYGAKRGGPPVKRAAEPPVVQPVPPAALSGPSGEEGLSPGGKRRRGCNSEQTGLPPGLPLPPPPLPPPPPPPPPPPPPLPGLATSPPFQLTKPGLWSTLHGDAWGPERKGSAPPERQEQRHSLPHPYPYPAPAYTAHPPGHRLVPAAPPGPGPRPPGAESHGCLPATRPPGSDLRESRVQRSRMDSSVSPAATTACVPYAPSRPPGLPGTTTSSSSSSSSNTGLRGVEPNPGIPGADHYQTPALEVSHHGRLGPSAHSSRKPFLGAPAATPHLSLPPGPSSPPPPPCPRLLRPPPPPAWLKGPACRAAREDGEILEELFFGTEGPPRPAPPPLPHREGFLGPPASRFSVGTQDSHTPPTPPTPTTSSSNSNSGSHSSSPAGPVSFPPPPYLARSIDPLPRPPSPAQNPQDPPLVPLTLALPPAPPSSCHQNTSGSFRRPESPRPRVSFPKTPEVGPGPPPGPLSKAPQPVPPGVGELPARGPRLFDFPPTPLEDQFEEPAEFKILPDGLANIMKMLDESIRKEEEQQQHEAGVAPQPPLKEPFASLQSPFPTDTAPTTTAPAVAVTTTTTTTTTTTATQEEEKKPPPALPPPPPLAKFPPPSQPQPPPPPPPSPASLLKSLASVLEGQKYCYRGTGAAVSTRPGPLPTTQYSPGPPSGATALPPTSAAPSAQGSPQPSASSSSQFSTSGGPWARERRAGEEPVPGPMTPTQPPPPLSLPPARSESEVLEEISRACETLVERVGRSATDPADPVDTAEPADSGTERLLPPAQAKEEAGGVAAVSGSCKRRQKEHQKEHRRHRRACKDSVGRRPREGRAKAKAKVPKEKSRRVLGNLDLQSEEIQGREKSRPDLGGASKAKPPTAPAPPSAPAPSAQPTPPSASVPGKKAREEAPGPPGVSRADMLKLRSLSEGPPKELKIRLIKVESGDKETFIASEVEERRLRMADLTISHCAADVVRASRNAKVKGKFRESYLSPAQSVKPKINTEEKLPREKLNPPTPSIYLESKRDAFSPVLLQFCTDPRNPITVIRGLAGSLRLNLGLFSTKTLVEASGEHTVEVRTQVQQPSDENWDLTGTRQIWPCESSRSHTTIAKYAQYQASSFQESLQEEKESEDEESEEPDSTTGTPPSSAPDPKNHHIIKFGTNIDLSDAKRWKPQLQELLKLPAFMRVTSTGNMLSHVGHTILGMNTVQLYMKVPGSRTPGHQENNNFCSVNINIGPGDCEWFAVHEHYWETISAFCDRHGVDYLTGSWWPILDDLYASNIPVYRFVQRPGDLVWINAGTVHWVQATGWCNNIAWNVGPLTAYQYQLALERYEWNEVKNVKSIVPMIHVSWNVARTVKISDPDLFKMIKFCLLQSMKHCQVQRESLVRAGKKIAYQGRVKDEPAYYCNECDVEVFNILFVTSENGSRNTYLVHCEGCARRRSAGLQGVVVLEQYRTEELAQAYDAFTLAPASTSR

Question: How did the IC50 [1] turn out when O=C(O)CNC(=O)C(=O)O was run?
Answer: Its IC50 is 41.5 µM.

Question: And the IC50 [2]?
Answer: Its IC50 is 6.9 µM.

Question: And the IC50 [3]?
Answer: Its IC50 is 24.5 µM.

Question: What about the IC50 [4] of the same compound?
Answer: Its IC50 is 5.8 µM.

Question: How did the IC50 [5] turn out when O=c1[nH]c(Oc2cnn(Cc3ccccc3)c2)nc2cnccc12 [GSK467] was run?
Answer: The IC50 was 33.9 µM.

Question: And the IC50 [1]?
Answer: The IC50 was 5.1 µM.

Question: What about the IC50 [2] of the same compound?
Answer: Its IC50 is 0.024 µM.

Question: What about the IC50 [3] of the same compound?
Answer: Its IC50 is 0.026 µM.

Question: And the IC50 [6]?
Answer: Its IC50 is 0.065 µM.

Question: And the IC50 [4]?
Answer: Its IC50 is 0.077 µM.

Question: Which IC50 [1] does the source give for O=C(O)CCNc1cc(N2CCc3ccccc3CC2)nc(-c2ccccn2)n1 [GSK-J1] here?
Answer: Its IC50 is 64.9 µM.

Question: And the IC50 [2]?
Answer: Its IC50 is 3.9 µM.

Question: What about the IC50 [3] of the same compound?
Answer: The IC50 was 0.55 µM.

Question: What about the IC50 [6] of the same compound?
Answer: The IC50 was 1.5 µM.

Question: What about the IC50 [4] of the same compound?
Answer: The IC50 was 1.5 µM.

Question: For CCN(CCN(C)C)C(=O)CNCc1cc(C(=O)O)ccn1 [KDOAM-20], which IC50 [7] is on record?
Answer: Its IC50 is 2.2 µM.

Question: What about the IC50 [5] of the same compound?
Answer: Its IC50 is 0.78 µM.

Question: What about the IC50 [1] of the same compound?
Answer: The IC50 was 0.21 µM.

Question: And the IC50 [2]?
Answer: Its IC50 is 0.007 µM.

Question: What about the IC50 [3] of the same compound?
Answer: Its IC50 is 0.004 µM.

Question: What about the IC50 [6] of the same compound?
Answer: Its IC50 is 0.013 µM.

Question: And the IC50 [4]?
Answer: The IC50 was 0.015 µM.

Question: What about the IC50 [8] of the same compound?
Answer: Its IC50 is 1.4 µM.

Question: With O=C(O)c1ccnc(C(=O)O)c1 [pyridine-2,4-dicarboxylic acid] as the compound, how does the IC50 [2] read?
Answer: Its IC50 is 1.3 µM.

Question: What about the IC50 [4] of the same compound?
Answer: Its IC50 is 2.5 µM.
